Measurements from patent publication US8541584B2, “3-(1,2,3-triazol-4-yl) pyrrolo [2,3-b] pyridine derivatives” (Merck Patent GmbH, priority 2009, dated 2013).

How the values were obtained:
PDK1 = molecular target: T1, PDK1 (Homo sapiens, UniProt O15530); experiment: Test for the inhibition of PDK1 (384-well flashplate, 33P-ATP); assay type: biochemical; conditions: His6-PDK1 3.4 nM, 4 μM ATP, 30° C., 60 min
T1 construct: His6 (N)
T1 sequence (O15530 51-556 limits assumed): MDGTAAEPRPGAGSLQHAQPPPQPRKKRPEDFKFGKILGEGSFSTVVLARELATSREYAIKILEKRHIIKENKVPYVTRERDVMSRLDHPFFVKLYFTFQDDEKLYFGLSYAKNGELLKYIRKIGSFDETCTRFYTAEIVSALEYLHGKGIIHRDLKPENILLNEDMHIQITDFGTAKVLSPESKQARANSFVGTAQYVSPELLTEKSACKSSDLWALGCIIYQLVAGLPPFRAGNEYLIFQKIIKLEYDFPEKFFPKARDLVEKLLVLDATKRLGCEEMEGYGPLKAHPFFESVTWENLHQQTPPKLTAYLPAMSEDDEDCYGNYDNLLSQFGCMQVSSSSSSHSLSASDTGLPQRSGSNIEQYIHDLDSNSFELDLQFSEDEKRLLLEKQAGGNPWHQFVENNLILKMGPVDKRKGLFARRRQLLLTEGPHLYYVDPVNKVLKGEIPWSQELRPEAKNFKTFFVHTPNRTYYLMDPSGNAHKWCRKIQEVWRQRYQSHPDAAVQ
Method: 4.0 Test for the Inhibition of PDK1
The experimental batches are carried out in a flashplate system with 384 wells/microtitration plate.
In each case, the PDK1 sample His6-PDK1(1-50)(3.4 nM), the PDK1 substrate biotin-bA-bA-[…] (400 nM), 4 μM ATP (with 0.2 μCi of ^33P-ATP/well) and the test substance in 50 μl of conventional experimental solution per well are incubated at 30° C. for 60 min. The test substances are employed in corresponding concentrations (if desired in a dilution series). The control is carried out without test substance. The reaction is stopped using standard methods and washed. The activity of the kinase is measured via the incorporated radioactivity in top count. In order to determine the non-specific kinase reaction (blank value), the experimental batches are carried out in the presence of 100 nM staurosporin.
The radioactivity (decompositions per minute) of the blank value (no use of test substance in the presence of staurosporin) is subtracted from all other radioactivity values. The controls (kinase activity without test substance) are set equal to 100 percent and all other radioactivity values (after subtracting the blank value) are expressed set in relation thereto (for example in % of the control).
IC50 values (50% inhibition) are determined with the aid of statistics programmes, such as, for example, RS1.

[1] = system: PDK1 kinase activity (P-T308-PKB) in PC3 cells; experiment: Cellular testing of PDK1 kinase inhibitors (Luminex assay, P-T308-PKB in PC3 cells); assay type: cell-based; conditions: Homo sapiens, PC-3, 0.5 h, serum-free, 30 min with test substance
Method: Description of the Method for Cellular Testing of PDK1 Kinase Inhibitors
The cellular assay for determination of the PDK1 kinase activity is performed as Luminex assay in the 96-well format. PC3 cells are sown at 20,000 cells per well in 100 μl of medium (45% of […]/45% of Ham's F12/10% of FCS) and incubated under serum-free conditions on the following day for 30 min with serial dilution of the test substance (7 concentrations). The cells are subsequently lysed using 90 μl of lysis buffer (20 mM Tris/HCl pH 8.0, 150 mM NaCl, 1% of NP40, 10% of glycerol, 1% of phosphatase inhibitor I, 1% of phosphatase inhibitor II, 0.1% of protease inhibitor Cocktail III, 0.01% of benzonase) per well, and the lysates are separated off from insoluble cell constituents by means of centrifugation through a 96-well filter plate (0.65 μm). The lysates are incubated overnight at 4° C. with shaking with Luminex beads to which an anti-total PKB antibody has been coupled. Detection is carried out on the following day by addition of a P-T308-PKB antibody and a species-specific PE-labelled secondary antibody. The determination of P-T308-PKB is carried out by measurement in the Luminex100 instrument by determination of 100 events per cavity in a measurement time of 60 sec. As pharmacological blank, the signals obtained from cells which have been treated with 10 μM staurosporin are subtracted from all other batches. The control value used for maximum phosphorylation of PKB on T308 are the signals from cells which have been treated only with the solvent (0.3% of DMSO). The values of the batches treated with test substance are calculated from this as percent of control, and IC50 values are determined by means of RS1.

| IC50 (PDK1) [nM] | IC50 [1] [nM] | Structure (SMILES) |
| --- | --- | --- |
| 0.5 to 1000 |  | c1ccc(Cn2cc(-c3c[nH]c4ncccc34)nn2)cc1 [Compound A1, 3-(1-benzyl-1H-1,2,3-triazol-4-yl)-1H-pyrrolo[2,3-b]pyridine] |
| 1000 to 10000 |  | Clc1ccc(Cn2cc(-c3c[nH]c4ncccc34)nn2)cc1 [Compound A2, 3-[1-(4-chlorobenzyl)-1H-1,2,3-triazol-4-yl]-1H-pyrrolo[2,3-b]-pyridine] |
| 0.5 to 1000 |  | Cc1[nH]c2ncccc2c1-c1cn(Cc2ccccc2)nn1 [Compound A3, 3-(1-Benzyl-1H-1,2,3-triazol-4-yl)-2-methyl-1H-pyrrolo[2,3-b]pyridine] |
| 0.5 to 1000 | 1000 to 10000 | Cn1cc(-c2cnc3[nH]cc(-c4cn(Cc5cccc(F)c5)nn4)c3c2)cn1 [Compound A5, 3-[1-(3-Fluorobenzyl)-1H-1,2,3-triazol-4-yl]-5-(1-methyl-1H-pyrazol-4-yl)-1H-pyrrolo-[2,3-b]pyridine] |
| 0.5 to 1000 | 1000 to 10000 | Cn1cc(-c2cnc3[nH]cc(-c4cn(Cc5ccc(F)cc5)nn4)c3c2)cn1 [Compound A6, 3-[1-(4-Fluorobenzyl)-1H-1,2,3-triazol-4-yl]-5-(1-methyl-1H-pyrazol-4-yl)-1H-pyrrolo-[2,3-b]pyridine] |
| 0.5 to 1000 | 1000 to 10000 | CC(c1ccccc1)n1cc(-c2c[nH]c3ncc(-c4cnn(C)c4)cc23)nn1 (centres unmarked) [Compound A8, 5-(1-methyl-1H-pyrazol-4-yl)-3-[1-(1-phenylethyl)-1H-1,2,3-triazol-4-yl]-1H-pyrrolo[2,3-b]pyridine] |
| 0.5 to 1000 |  | COc1ccnc2[nH]cc(-c3cn(Cc4ccccc4)nn3)c12 [Compound A15, 3-(1-benzyl-1H-1,2,3-triazol-4-yl)-4-methoxy-1H-pyrrolo[2,3-b]-pyridine] |
| 0.5 to 1000 | 1000 to 10000 | CC(c1cccc(C(F)(F)F)c1)n1cc(-c2c[nH]c3ncc(-c4cnn(C)c4)cc23)nn1 (centres unmarked) [Compound A19, 5-(1-Methyl-1H-pyrazol-4-yl)-3-{1-[1-(3-trifluoromethylphenyl)ethyl]-1H-1,2,3-triazol-4-yl}-1H-pyrrolo[2,3-b]pyridine] |
| 0.5 to 1000 | 1000 to 10000 | Cn1cc(-c2cnc3[nH]cc(-c4cn(Cc5ccc(F)cc5F)nn4)c3c2)cn1 [Compound A21, 3-[1-(2,4-Difluorobenzyl)-1H-1,2,3-triazol-4-yl]-5-(1-methyl-1H-pyrazol-4-yl)-1H-pyrrolo-[2,3-b]pyridine] |
| 0.5 to 1000 | 1000 to 10000 | Cn1cc(-c2cnc3[nH]cc(-c4cn(Cc5cccc(C(F)(F)F)c5F)nn4)c3c2)cn1 [Compound A22, 3-[1-(2-Fluoro-3-trifluoromethylbenzyl)-1H-1,2,3-triazol-4-yl]-5-(1-methyl-1H-pyrazol-4-yl)-1H-pyrrolo[2,3-b]pyridine] |
| 0.5 to 1000 | 0.5 to 1000 | Cn1cc(-c2cnc3[nH]cc(-c4cn(Cc5cccc(Cl)c5F)nn4)c3c2)cn1 [Compound A23, 3-[1-(3-Chloro-2-fluorobenzyl)-1H-1,2,3-triazol-4-yl]-5-(1-methyl-1H-pyrazol-4-yl)-1H-pyrrolo[2,3-b]pyridine] |
| 0.5 to 1000 | 1000 to 10000 | Cn1cc(-c2cnc3[nH]cc(-c4cn(Cc5c(F)cccc5C(F)(F)F)nn4)c3c2)cn1 [Compound A24, 3-[1-(2-Fluoro-6-trifluoromethylbenzyl)-1H-1,2,3-triazol-4-yl]-5-(1-methyl-1H-pyrazol-4-yl)-1H-pyrrolo[2,3-b]pyridine] |
| 0.5 to 1000 | 1000 to 10000 | Cn1cc(-c2cnc3[nH]cc(-c4cn(Cc5ccc(C(F)(F)F)cc5F)nn4)c3c2)cn1 [Compound A26, 3-[1-(2-Fluoro-4-trifluoromethylbenzyl)-1H-1,2,3-triazol-4-yl]-5-(1-methyl-1H-pyrazol-4-yl)-1H-pyrrolo[2,3-b]pyridine] |
| 0.5 to 1000 |  | CC(c1ccc(C(=O)O)cc1)n1cc(-c2c[nH]c3ncc(-c4cnn(C)c4)cc23)nn1 (centres unmarked) [Compound A27, 4-(1-{4-[5-(1-Methyl-1H-pyrazol-4-yl)-1H-pyrrolo[2,3-b]pyridin-3-yl]-1,2,3-triazol-1-yl}-ethyl)benzoic acid] |
| 0.5 to 1000 |  | Cn1cc(-c2cnc3[nH]cc(-c4cn(C(CC(=O)O)c5ccccc5)nn4)c3c2)cn1 (centres unmarked) [Compound A28, 3-{4-[5-(1-Methyl-1H-pyrazol-4-yl)-1H-pyrrolo[2,3-b]pyridin-3-yl]-1,2,3-triazol-1-yl}-3-phenylpropionic acid] |
| 0.5 to 1000 | 1000 to 10000 | CC(c1ccc(CO)cc1)n1cc(-c2c[nH]c3ncc(-c4cnn(C)c4)cc23)nn1 (centres unmarked) [Compound A30, [4-(1-{4-[5-(1-Methyl-1H-pyrazol-4-yl)-1H-pyrrolo[2,3-b]pyridin-3-yl]-1,2,3-triazol-1-yl}-ethyl)phenyl]methanol] |
| 0.5 to 1000 | 1000 to 10000 | Cn1cc(-c2cnc3[nH]cc(-c4cn(CC(O)c5ccccc5)nn4)c3c2)cn1 (centres unmarked) [Compound A31, 2-{4-[5-(1-Methyl-1H-pyrazol-4-yl)-1H-pyrrolo[2,3-b]pyridin-3-yl]-1,2,3-triazol-1-yl}-1-phenylethanol] |
|  | 1000 to 10000 | Cn1cc(-c2cnc3[nH]cc(-c4cn(Cc5ccncc5F)nn4)c3c2)cn1 [Compound A32, 3-[1-(3-Fluoropyridin-4-ylmethyl)-1H-1,2,3-triazol-4-yl]-5-(1-methyl-1H-pyrazol-4-yl)-1H-pyrrolo[2,3-b]pyridine] |
|  | 1000 to 10000 | COc1cccc(Cn2cc(-c3c[nH]c4ncc(-c5cnn(C)c5)cc34)nn2)c1 [Compound A34, 3-[1-(3-Methoxybenzyl)-1H-1,2,3-triazol-4-yl]-5-(1-methyl-1H-pyrazol-4-yl)-1H-pyrrolo-[2,3-b]pyridine] |
|  | 1000 to 10000 | Cn1cc(-c2cnc3[nH]cc(-c4cn(Cc5ccccc5CO)nn4)c3c2)cn1 [Compound A35, (2-{4-[5-(1-Methyl-1H-pyrazol-4-yl)-1H-pyrrolo[2,3-b]pyridin-3-yl]-1,2,3-triazol-1-ylmethyl}phenyl)methanol] |
|  | 1000 to 10000 | Cn1cc(-c2cnc3[nH]cc(-c4cn(Cc5ccc(OC(F)F)cc5)nn4)c3c2)cn1 [Compound A36, 3-[1-(4-Difluoromethoxybenzyl)-1H-1,2,3-triazol-4-yl]-5-(1-methyl-1H-pyrazol-4-yl)-1H-pyrrolo[2,3-b]pyridine] |
|  | 1000 to 10000 | COC(=O)c1cccc(Cn2cc(-c3c[nH]c4ncc(-c5cnn(C)c5)cc34)nn2)c1 [Compound A37, Methyl 3-{4-[5-(1-methyl-1H-pyrazol-4-yl)-1H-pyrrolo[2,3-b]pyridin-3-yl]-1,2,3-triazol-1-ylmethyl}benzoate] |
|  | 0.5 to 1000 | Cn1cc(-c2cnc3[nH]cc(-c4cn(Cc5ccccc5C#N)nn4)c3c2)cn1 [Compound A38, 2-{4-[5-(1-Methyl-1H-pyrazol-4-yl)-1H-pyrrolo[2,3-b]pyridin-3-yl]-1,2,3-triazol-1-yl-methyl}benzonitrile] |
|  | 1000 to 10000 | Cn1cc(-c2cnc3[nH]cc(-c4cn(Cc5cccc(OC(F)F)c5)nn4)c3c2)cn1 [Compound A39, 3-[1-(3-Difluoromethoxybenzyl)-1H-1,2,3-triazol-4-yl]-5-(1-methyl-1H-pyrazol-4-yl)-1H-pyrrolo[2,3-b]pyridine] |
